Source: patent publication US20260240975A1, “VALIDATED HPV16-DERIVED S[…]” (Deutsches Krebsforschungszentrum Stiftung des öffentlichen …, priority 2023, published 2026)

The substances below were run on short-term antigen-specific T cell lines generated from PBMCs (assay: Interferon-γ ELISpot assay on short-term T cell lines). Details: HLA restriction A01.
Type: cell-based, human
Design: key: +: ELISPOT: Immungenicity of the peptide shown by IFN-gamma ELISPOT analysis; * Highlights data from published resources; +*: * Highlights data from published resources

| Substance | ELISpot |
| --- | --- |
| 8 (SKISEYRHYCY; Human papillomavirus 16) [compound 8] | + |
| 9 (SEYRHYCYSLY; Human papillomavirus 16) [compound 9] | + |
| 10 (ETTDLYCY; Human papillomavirus 16) [compound 10] | + |

Same assay, conditions: HLA restriction A02

| Substance | ELISpot |
| --- | --- |
| 28 (KLPQLCTELQT; Human papillomavirus 16) [compound 28] | + |
| 29 (ELQTTIHDI; Human papillomavirus 16) [compound 29] | + |
| 32 (TLHEYMLDLQP; Human papillomavirus 16) [compound 32] | + |

Same assay, conditions: HLA restriction A03

| Substance | ELISpot |
| --- | --- |
| 36 (HLDKKQRFH; Human papillomavirus 16) [compound 36] | + |
| 47 (MFQDPQERPRK; Human papillomavirus 16) [compound 47] | + |
| 49 (AVCDKCLK; Human papillomavirus 16) [compound 49] | + |
| 50 (KCLKFYSKI; Human papillomavirus 16) [compound 50] | + |
| 51 (KFYSKISEY; Human papillomavirus 16) [compound 51] | + |
| 52 (KFYSKISEYR; Human papillomavirus 16) [compound 52] | + |
| 54 (TTLEQQYNK; Human papillomavirus 16) [compound 54] | + |
| 56 (LIRCINCQK; Human papillomavirus 16) [compound 56] | + |
| 57 (RCINCQKPLCP; Human papillomavirus 16) [compound 57] | + |
| 58 (KQRFHNIRGR; Human papillomavirus 16) [compound 58] | + |

Same assay, conditions: HLA restriction A11

| Substance | ELISpot |
| --- | --- |
| 35 (IILECVYCK; Human papillomavirus 16) [compound 35] | + |
| 48 (YAVCDKCLKFY; Human papillomavirus 16) [compound 48] | + |
| 59 (LGIVCPICSQK; Human papillomavirus 16) [compound 59] | + |

Same assay, conditions: HLA restriction A24

| Substance | ELISpot |
| --- | --- |
| 51 (KFYSKISEY; Human papillomavirus 16) [compound 51] | + |
| 63 (PYAVCDKCLKF; Human papillomavirus 16) [compound 63] | + |
| 72 (YSLYGTTL; Human papillomavirus 16) [compound 72] | + |
| 73 (HLDKKQRFHNI; Human papillomavirus 16) [compound 73] | + |
| 74 (DKKQRFHN; Human papillomavirus 16) [compound 74] | + |
| 75 (AHYNIVTF; Human papillomavirus 16) [compound 75] | + |

Same assay, conditions: HLA restriction B07

| Substance | ELISpot |
| --- | --- |
| 82 (RPRKLPQLCT; Human papillomavirus 16) [compound 82] | + |
| 84 (RCMSCCRSSR; Human papillomavirus 16) [compound 84] | + |

Same assay, conditions: HLA restriction B15

| Substance | ELISpot |
| --- | --- |
| 9 (SEYRHYCYSLY; Human papillomavirus 16) [compound 9] | 1 |
| 89 (QQLLRREVY; Human papillomavirus 16) [compound 89] | + |
| 93 (FAFRDLCIVY; Human papillomavirus 16) [compound 93] | + |
| 94 (LCIVYRDGNPY; Human papillomavirus 16) [compound 94] | + |
| 96 (LLRREVYDFAF; Human papillomavirus 16) [compound 96] | + |
| 97 (LRREVYDFAF; Human papillomavirus 16) [compound 97] | + |
| 98 (IVYRDGNPYAV; Human papillomavirus 16) [compound 98] | + |
| 99 (AVCDKCLKF; Human papillomavirus 16) [compound 99] | + |
| 100 (CLKFYSKISEY; Human papillomavirus 16) [compound 100] | + |
| 101 (FYSKISEY; Human papillomavirus 16) [compound 101] | + |
| 104 (SEYRHYCY; Human papillomavirus 16) [compound 104] | + |
| 105 (QQYNKPLCDL; Human papillomavirus 16) [compound 105] | + |
